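48-hour exposure; five concentrations; linearly interpolated endpoints. Abbreviation: GI50, concentration required for 50% inhibition of growth. TGI: concentration producing complete growth inhibition.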
How the values were obtained:
Experiment in all cases: DTP human tumour cell line panel, 48 h; in the data active = GI50 below about 0.43 µM; inactive = the rest
786-0 renal = system: 786-0 renal
SF-268 CNS = system: SF-268 CNS
COLO 205 colon = system: COLO 205 colon
CAKI-1 renal = system: CAKI-1 renal
UACC-257 melanoma = system: UACC-257 melanoma
MALME-3M melanoma = system: MALME-3M melanoma
HS 578T breast = system: HS 578T breast
SW-620 colon = system: SW-620 colon
SNB-19 CNS = system: SNB-19 CNS
DU-145 prostate = system: DU-145 prostate
LOX IMVI melanoma = system: LOX IMVI melanoma
PC-3 prostate = system: PC-3 prostate
A549 NSCLC = system: A549 NSCLC
NCI-H226 lung = system: NCI-H226 lung
SK-OV-3 ovarian = system: SK-OV-3 ovarian
CCRF-CEM leukemia = system: CCRF-CEM leukemia
OVCAR-8 ovarian = system: OVCAR-8 ovarian
OVCAR-5 ovarian = system: OVCAR-5 ovarian
SK-MEL-28 melanoma = system: SK-MEL-28 melanoma
NCI-H23 lung = system: NCI-H23 lung
HOP-62 NSCLC = system: HOP-62 NSCLC
T-47D breast = system: T-47D breast
BT-549 breast = system: BT-549 breast
SF-539 CNS = system: SF-539 CNS
SK-MEL-2 melanoma = system: SK-MEL-2 melanoma
HCT-116 colon = system: HCT-116 colon
HCT-15 colon = system: HCT-15 colon
NCI-H522 lung = system: NCI-H522 lung
SK-MEL-5 melanoma = system: SK-MEL-5 melanoma
MCF7 breast = system: MCF7 breast
KM12 colon = system: KM12 colon
MDA-MB-231 breast = system: MDA-MB-231 breast
MDA-MB-435 = system: MDA-MB-435
RPMI-8226 leukemia = system: RPMI-8226 leukemia
OVCAR-3 ovarian = system: OVCAR-3 ovarian
IGROV1 ovarian = system: IGROV1 ovarian
HCC-2998 colon = system: HCC-2998 colon
M14 melanoma = system: M14 melanoma
U251 CNS = system: U251 CNS
NCI-H460 lung = system: NCI-H460 lung
TK-10 renal = system: TK-10 renal
HL-60(TB) leukemia = system: HL-60(TB) leukemia
SN12C renal = system: SN12C renal
MOLT-4 leukemia = system: MOLT-4 leukemia
SNB-75 CNS = system: SNB-75 CNS
UACC-62 melanoma = system: UACC-62 melanoma
HT29 colon = system: HT29 colon
K-562 leukemia = system: K-562 leukemia
A498 renal = system: A498 renal
UO-31 renal = system: UO-31 renal
EKVX NSCLC = system: EKVX NSCLC
ACHN renal = system: ACHN renal
RXF 393 renal = system: RXF 393 renal
NCI/ADR-RES ovarian = system: NCI/ADR-RES ovarian
SF-295 CNS = system: SF-295 CNS
OVCAR-4 ovarian = system: OVCAR-4 ovarian
SR leukemia = system: SR leukemia
HOP-92 NSCLC = system: HOP-92 NSCLC

Cc1cc(S(=O)(=O)Nc2n[nH]c(Nc3ccccc3)n2)c(S)cc1Cl
> 10 µM: TGI (786-0 renal) | TGI (SF-268 CNS) | TGI (COLO 205 colon) | TGI (CAKI-1 renal) | TGI (UACC-257 melanoma) | TGI (MALME-3M melanoma) | TGI (HS 578T breast) | TGI (SW-620 colon) | TGI (SNB-19 CNS) | TGI (DU-145 prostate) | TGI (LOX IMVI melanoma) | TGI (PC-3 prostate) | TGI (A549 NSCLC) | TGI (NCI-H226 lung) | TGI (SK-OV-3 ovarian) | TGI (CCRF-CEM leukemia) | TGI (OVCAR-8 ovarian) | TGI (OVCAR-5 ovarian) | TGI (SK-MEL-28 melanoma) | TGI (NCI-H23 lung) | TGI (HOP-62 NSCLC) | TGI (T-47D breast) | TGI (BT-549 breast) | TGI (SF-539 CNS) | TGI (SK-MEL-2 melanoma) | TGI (HCT-116 colon) | TGI (HCT-15 colon) | TGI (NCI-H522 lung) | TGI (SK-MEL-5 melanoma) | TGI (MCF7 breast) | TGI (KM12 colon) | TGI (MDA-MB-231 breast) | TGI (MDA-MB-435) | TGI (RPMI-8226 leukemia) | TGI (OVCAR-3 ovarian) | TGI (IGROV1 ovarian) | TGI (HCC-2998 colon) | TGI (M14 melanoma) | TGI (U251 CNS) | TGI (NCI-H460 lung) | TGI (TK-10 renal) | TGI (HL-60(TB) leukemia) | TGI (SN12C renal) | TGI (MOLT-4 leukemia) | TGI (SNB-75 CNS) | TGI (UACC-62 melanoma) | TGI (HT29 colon) | TGI (K-562 leukemia) | TGI (A498 renal) | TGI (UO-31 renal) | TGI (EKVX NSCLC) | TGI (ACHN renal) | TGI (RXF 393 renal) | TGI (NCI/ADR-RES ovarian) | TGI (SF-295 CNS) | TGI (OVCAR-4 ovarian)

COC(=O)c1cc(Nc2ccc(O)c3c2C(=O)c2c([N+](=O)[O-])ccc(O)c2C3=O)cc(C(=O)OC)c1
5.56 µM: TGI (COLO 205 colon)
4.05 µM: TGI (A549 NSCLC)
inactive: GI50 (786-0 renal) 30.6 µM | GI50 (SF-268 CNS) 7.97 µM | GI50 (COLO 205 colon) 2.38 µM | GI50 (CAKI-1 renal) 77.1 µM | GI50 (UACC-257 melanoma) 3.23 µM | GI50 (MALME-3M melanoma) 2.75 µM | GI50 (HS 578T breast) 3.77 µM | GI50 (SW-620 colon) 3.3 µM | GI50 (SNB-19 CNS) 22.2 µM | GI50 (DU-145 prostate) 1.75 µM | GI50 (LOX IMVI melanoma) 6.39 µM | GI50 (PC-3 prostate) 13.5 µM | GI50 (A549 NSCLC) 1.74 µM | GI50 (NCI-H226 lung) 20.1 µM | GI50 (SK-OV-3 ovarian) > 100 µM | GI50 (CCRF-CEM leukemia) 4.27 µM | GI50 (OVCAR-8 ovarian) 6.57 µM | GI50 (OVCAR-5 ovarian) 26 µM | GI50 (HOP-62 NSCLC) 4.04 µM | GI50 (T-47D breast) 4.78 µM | GI50 (BT-549 breast) 13.7 µM | GI50 (SF-539 CNS) 60 µM | GI50 (SK-MEL-2 melanoma) 4.05 µM | GI50 (HCT-116 colon) 4.17 µM | GI50 (HCT-15 colon) 2.77 µM | GI50 (NCI-H522 lung) 4.07 µM | GI50 (MCF7 breast) 4.3 µM | GI50 (KM12 colon) 34.5 µM | GI50 (MDA-MB-231 breast) 13.8 µM | GI50 (RPMI-8226 leukemia) 3.84 µM | GI50 (OVCAR-3 ovarian) 3.42 µM | GI50 (IGROV1 ovarian) 26.9 µM | GI50 (HCC-2998 colon) 4.39 µM | GI50 (M14 melanoma) 3.15 µM | GI50 (U251 CNS) 25.7 µM | GI50 (NCI-H460 lung) 3.32 µM | GI50 (HL-60(TB) leukemia) 18.4 µM | GI50 (SN12C renal) 21.4 µM | GI50 (MOLT-4 leukemia) 6.37 µM | GI50 (UACC-62 melanoma) 4.63 µM | GI50 (HT29 colon) 8.21 µM | GI50 (K-562 leukemia) 27.2 µM | GI50 (SR leukemia) 3.19 µM | GI50 (A498 renal) 20.8 µM | GI50 (UO-31 renal) 16.5 µM | GI50 (ACHN renal) 21.3 µM | GI50 (RXF 393 renal) 5.09 µM | GI50 (HOP-92 NSCLC) 22 µM | GI50 (NCI/ADR-RES ovarian) 26.8 µM | GI50 (SF-295 CNS) 21.8 µM | GI50 (OVCAR-4 ovarian) 3.99 µM
18.9 µM: TGI (NCI-H460 lung)
28.3 µM: TGI (NCI-H522 lung)
88.2 µM: TGI (HL-60(TB) leukemia)
3.51 µM: TGI (DU-145 prostate)
> 100 µM: TGI (786-0 renal) | TGI (SF-268 CNS) | TGI (CAKI-1 renal) | TGI (UACC-257 melanoma) | TGI (HS 578T breast) | TGI (SW-620 colon) | TGI (SNB-19 CNS) | TGI (LOX IMVI melanoma) | TGI (PC-3 prostate) | TGI (NCI-H226 lung) | TGI (SK-OV-3 ovarian) | TGI (CCRF-CEM leukemia) | TGI (OVCAR-8 ovarian) | TGI (OVCAR-5 ovarian) | TGI (HOP-62 NSCLC) | TGI (T-47D breast) | TGI (BT-549 breast) | TGI (SF-539 CNS) | TGI (SK-MEL-2 melanoma) | TGI (HCT-116 colon) | TGI (HCT-15 colon) | TGI (MCF7 breast) | TGI (KM12 colon) | TGI (MDA-MB-231 breast) | TGI (RPMI-8226 leukemia) | TGI (IGROV1 ovarian) | TGI (HCC-2998 colon) | TGI (M14 melanoma) | TGI (U251 CNS) | TGI (SN12C renal) | TGI (MOLT-4 leukemia) | TGI (UACC-62 melanoma) | TGI (HT29 colon) | TGI (K-562 leukemia) | TGI (A498 renal) | TGI (UO-31 renal) | TGI (ACHN renal) | TGI (RXF 393 renal) | TGI (HOP-92 NSCLC) | TGI (NCI/ADR-RES ovarian) | TGI (SF-295 CNS) | TGI (OVCAR-4 ovarian)
42.6 µM: TGI (SR leukemia)
6.39 µM: TGI (MALME-3M melanoma)
21.3 µM: TGI (OVCAR-3 ovarian)
